{
  "source": "paper PMC7714071",
  "about": "“Interaction of amyloid beta with humanin and acetylcholinesterase is modulated by ATP” (FEBS Open Bio, 2020)",
  "key": {"[1]": {"system": "Aβ", "details": "physiological intracellular concentrations, enhanced by magnesium; cited from earlier work", "text": "Soluble oligomers of proteins implicated in different diseases are primarily thought to be the main toxic form as opposed to the larger fibrillar assemblies. Aβ regions containing Tyr and Ser (H6DSGY10 and G25SNKG29) (Fig. 1) along with post‐translational modifications of these regions, have been implicated in misfolding, oligomerization, or fibril formation of Aβ [5, 10, 11, 16, 41]. […] In addition to ATP, the glycosaminoglycan, heparan sulfate (HS), has been previously reported to i ... || Access to the central domain of Aβ (residues 17–24) flanked by Lys‐16 and Lys‐28, known to be a critical structural element in fibrillar Aβ aggregates, might be regulated by binding of AChE and HN to their overlapping binding sites on Aβ. […] Moreover, we s ..."}, "[2]": {"experiment": "ELISA, binding of biotinylated-Aβ to immobilised HS", "parameters": "species or system bovine", "details": "HS 100 nM on wells, increasing biotinylated-Aβ; single binding site model; mean ± SD of three independent experiments in triplicate; Fig. 2A", "method": "ELISAs were carried out as we previously reported. Nunc MaxiSorp 96‐well flat bottom plate (Thermo Fisher) wells were coated with samples as indicated. The plates were incubated overnight at 4 °C on a shaker to allow binding of the samples to the plate wells. After the incubation, the wells were washed 4× with TBST, filled with 400 µL blocking buffer (110 mM KCl, 5 mM NaHCO3, 5 mM MgCl2, 1 mM EGTA, 0.1 mM CaCl2, 20 mM HEPES, 1% BSA, pH 7.4), and incubated with shaking overnight at 4 °C. The wells were then washed 4× with TBST, and 100 µL of sample at the desired concentration was added to each well and incubated with shaking overnight at 4 °C. TBST was then used to wash the wells 4× before proceeding in one of two ways: (a) biotinylated samples were analyzed by adding 100 µL streptavidin–HRP conjugate in TBST (1 : 2500 dilution) to the samples followed by incubation for 3 h at RT on a shaker, or (b) samples without biotin were analyzed by adding 100 µL TBST containing the primary antibody as per the manufacturer's recommendation, incubating for 3 h at RT on a shaker, followed by washing the wells 4× with TBST. […] The reaction was stopped with 100 µL 2 M H2SO4 after incubating at RT for 0.5–15 min, resulting in a yellow color change, measured by absorbance at 450 nm. […] Statistical analysis was determined by the […] […] Data were expressed as the mean ± SD. […]"}, "[3]": {"system": "Aβ40", "details": "versus Aβ42; cited from earlier work", "text": "Almost all types of cells produce amyloid beta (Aβ), a peptide well recognized for its role in the development and progression of different stages of Alzheimer's disease (AD). The Aβ peptide is ~ 4 kDa and derived from the sequential processing of the higher molecular weight amyloid precursor protein by two membrane‐bound endoproteases, β‐ and γ‐secretase. Different C‐terminal Aβ heterogeneity results from processing by γ‐secretase, where Aβ40 represents the most abundant isoform (~ 90%) as compared to Aβ42 (~ 10%). Self‐assembled Aβ40/42 peptides into amyloid fib ... || Humanin (HN) is a secreted 21‐ to 24‐amino acid mitochondrial‐derived peptide. Certain amino acid residues in HN have been identified to be involved in different functions, including binding to Aβ [55, 56]. […] HN was identified previously as a binding partner of Aβ, likely modulating its aggregation pathways and counteracting its deleterious effects. […] The specific epitopes at the binding interface between HN and Aβ40 were identified, by proteolytic epitope excision and extraction in addition to affinity–mass spectrometric data analysis, to be HN (5–15) and Aβ (17–28). […] Inhibiting the 17–28 region of Aβ reduced aggregation of the neurotoxic amyloid fibrils and related cytotoxicity in SH‐SY5Y, a human neuroblastoma cell ... || (+ 1 further places)"}, "[4]": {"system": "Aβ cytotoxicity", "details": "cited from earlier work", "text": "Almost all types of cells produce amyloid beta (Aβ), a peptide well recognized for its role in the development and progression of different stages of Alzheimer's disease (AD). The Aβ peptide is ~ 4 kDa and derived from the sequential processing of the higher molecular weight amyloid precursor protein by two membrane‐bound endoproteases, β‐ and γ‐secretase. Different C‐terminal Aβ heterogeneity results from processing by γ‐secretase, where Aβ40 represents the most abundant isoform (~ 90%) as compared to Aβ42 (~ 10%). Self‐assembled Aβ40/42 peptides into amyloid fib ... || Soluble oligomers of proteins implicated in different diseases are primarily thought to be the main toxic form as opposed to the larger fibrillar assemblies. Aβ regions containing Tyr and Ser (H6DSGY10 and G25SNKG29) (Fig. 1) along with post‐translational modifications of these regions, have been implicated in misfolding, oligomerization, or fibril formation of Aβ [5, 10, 11, 16, 41]. […] Aβ proteins a ... || Acetylcholinesterase (AChE) is an enzyme known for its role in terminating acetylcholine‐mediated neurotransmission at the synaptic cleft. The majority of the cortical AChE in the Alzheimer's brain is mainly associated with the amyloid core of senile plaques. […]"}, "[5]": {"system": "Aβ42", "details": "in brains of AD patients; cited from earlier work", "text": "Almost all types of cells produce amyloid beta (Aβ), a peptide well recognized for its role in the development and progression of different stages of Alzheimer's disease (AD). The Aβ peptide is ~ 4 kDa and derived from the sequential processing of the higher molecular weight amyloid precursor protein by two membrane‐bound endoproteases, β‐ and γ‐secretase. Different C‐terminal Aβ heterogeneity results from processing by γ‐secretase, where Aβ40 represents the most abundant isoform (~ 90%) as compared to Aβ42 (~ 10%). Self‐assembled Aβ40/42 peptides into amyloid fib ... || Amino acid residues involved in direct interactions between HN and Aβ40 were identified previously by molecular modeling. The specific epitopes at the binding interface between HN and Aβ40 were identified, by proteolytic epitope excision and extraction in addition to affinity–mass spectrometric data analysis, to be HN (5–15) and Aβ (17–28). […] Inhibiting the 17–28 region of Aβ reduced aggregation of the neurotoxic amyloid fibrils and related cytotoxicity in SH‐SY5Y, a human neuroblastoma cell ... || Acetylcholinesterase (AChE) is an enzyme known for its role in terminating acetylcholine‐mediated neurotransmission at the synaptic cleft. The majority of the cortical AChE in the Alzheimer's brain is mainly associated with the amyloid core of senile plaques. […]"}, "[6]": {"system": "human lung adenocarcinoma xenografts", "details": "direct injection into xenografts; cited from earlier work", "text": "A rapidly growing body of evidence has recently steadily emerged showing that AD patients might have a reduced risk and some protection against certain cancers. […] Experimental evi ..."}, "[7]": {"system": "Aβ in H1299 cell-conditioned media", "experiment": "ELISA, oligomer versus total Aβ in H1299 cell-conditioned media", "format": "cell-based, human", "details": "non-depleted H1299 media; Fig. 8B", "method": "(§1) Aβ ELISAs were carried out according to previous protocols for determining the oligomeric and monomeric concentrations of Aβ and as we recently reported. Briefly, total Aβ (monomers + oligomers) was measured by two‐site binding ELISAs using the capture 6E10 monoclonal antibody and 4G8‐conjugated biotin as the detection antibody, which recognizes a distinct epitope, then quantitated using streptavidin‐HRP.\n(§2) Using the same samples, oligomerized Aβ was measured by a single‐site ELISA in which antibodies targeting the same primary sequence epitope were used for both capture (4G8) and detection (4G8‐biotin). Only oligomers are detected with this approach since the 4G8‐biotin antibody cannot bind to the captured monomer because the epitope is blocked by the 4G8 capture antibody. Therefore, only oligomeric or multimeric Aβ containing additional exposed 4G8 epitopes, not engaged by the capture antibody, are reported by the streptavidin–HRP. The amount of the monomer was then estimated as the difference between the concentration of total Aβ and the concentration of the oligomer.\n(§3) Conditioned media were immunodepleted (ID) according to the methods previously described and our recently published report. Briefly, specific antibodies were bound to ELISA wells overnight (1 : 1000 dilution). The wells were then blocked and washed, then 300 μL of the conditioned medium (0.5 μg·μL^−1) treated as indicated, 72 h postserum starvation, was incubated with the antibodies bound to ELISA wells for 24 h. The ID media were then carefully removed and analyzed for the presence of the target protein or peptide by ELISA. The same amount of protein (3 µL of 600 µg·mL^−1 total protein) of each sample was analyzed in the experiments. Significant depletion (95–100%) was observed upon using each of the antibodies employed in this study.\n(§4) Both epitopes recognized by the 6E10 and 4G8 antibodies have been previously shown to be exposed in Aβ aggregates. […] To determine the effect of ID of AChE or HN on this ratio in the absence or presence of added ATP, 0.2 × 10^5 cells per well were seeded in 96‐well plates in 10% FBS‐supplemented media. The next day, the cells were incubated in serum‐free medium for 72 h, then ID of AChE or HN as described in Materials and methods. The antibodies 6E10 or 4G8 were bound (1 : 1000 dilution) to ELISA wells (Fig. 8). The wells were blocked, and then incubated with 300 μL of the ID medium (0.5 μg·μL^−1). Biotin‐4G8 was then added and the signal processed as described in Materials and methods section. Fold change relative to controls using anti‐6E10 or anti‐4G8 antibodies incubated with 300 μL of the medium not incubated with cells was calculated.\n(§5) Cells (0.2 × 10^5) were grown in 10% FBS‐supplemented media for 24 h. The cells were then incubated in serum‐free medium for 72 h without or with ATP and the media collected and ID from either HN or AChE as described in Materials and methods section. The antibodies 6E10 or 4G8 were bound (1 : 1000 dilution) to ELISA wells. The wells were blocked, and then incubated with 300 μL of the control and ID medium (0.5 μg·μL^−1). Biotin‐4G8 was then added and the signal processed as described in Materials and methods section. Fold change relative to controls using anti‐6E10 and anti‐4G8 antibodies and 300 μL of the medium not incubated with cells was calculated. Data were processed using the […] 8.4.3 software. The graphs summarize the results expressed as means ± SD of three separate experiments, each performed in triplicate. […]"}, "[8]": {"system": "Aβ in A549 cell-conditioned media", "experiment": "ELISA, oligomer versus total Aβ in A549 cell-conditioned media", "format": "cell-based, human", "details": "non-depleted A549 media; Fig. 8A", "method": "as §1, §2, §3, §4, §5"}, "[9]": {"system": "Aβ", "details": "cited from earlier work"}},
  "data": [
    {"compound": "Nc1ncnc2c1ncn2[C@@H]1O[C@H](COP(=O)(O)OP(=O)(O)O)[C@@H](O)[C@H]1O", "note": "[ADP]", "values": [
      {"measurement": "effect on misfolding of Aβ", "setting": "[1]", "value": "reduced misfolding of Aβ"}
    ]},
    {"compound": "Aβ40", "values": [
      {"measurement": "binding affinity of Aβ for HS", "setting": "[2]", "value": "comparable affinities"},
      {"measurement": "aggregation kinetics of Aβ40", "setting": "[3]", "value": "lower aggregation kinetics"},
      {"measurement": "toxicity relative to Aβ42", "setting": "[4]", "value": "lower toxicity"}
    ]},
    {"compound": "Aβ42", "values": [
      {"measurement": "aggregation kinetics of Aβ42", "setting": "[5]", "value": "faster aggregation kinetics"},
      {"measurement": "binding affinity of Aβ for HS", "setting": "[2]", "value": "comparable affinities"}
    ]},
    {"compound": "amyloid beta [Aβ]", "values": [
      {"measurement": "tumor growth", "setting": "[6]", "value": "suppress tumor growth in mice"},
      {"measurement": "oligomer relative to total Aβ", "setting": "[7]", "value": "~ 48%"},
      {"measurement": "oligomer relative to total Aβ", "setting": "[8]", "value": "~ 63%"}
    ]},
    {"compound": "biotinylated‐HN", "values": [
      {"measurement": "binding of biotinylated-HN to Aβ versus HN", "setting": "[9]", "value": "indistinguishable"}
    ]}
  ]
}
